The source of these data is US11390604B2 (Hoffmann-La Roche Inc., priority 2019, dated 2022).

Usually IC90 stands for the concentration at which the effect reaches the 90% level.

Counter-ions that a name gives are not always drawn.

The subject of the first experiment is Acinetobacter baumannii ATCC 17961. The experiment in a line: Antimicrobial susceptibility testing: 90% growth inhibitory concentration (IC90) determination. The format is cell-based. To be noted: ATCC17961, Acinetobacter baumannii ATCC 17961, Iso-Sensitest broth, read-out: ATCC 17961 IC90. Put shortly: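 Broth microdilution in Iso-Sensitest medium, twofold series (e.g. 50 to 0.097 μM final), ~5×10^5 CFU/ml inoculum, 35±2 °C. OD600 read every 20 min over 16 h. IC90 derived from growth inhibition during logarithmic phase.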
Consider `Cn1c(-c2cn(C3CC3)nc2C(F)(F)F)cnc1C(=O)Nc1ccc(C(=O)N2CCN(C(=O)[C@@H]3CCC[C@@H](N)C3)CC2)c(Cl)c1` [Example 287, N-(4-(4-((1R,3R)-3-aminocyclohexane-1-carbonyl)piperazine-1-carbonyl)-3-chlorophenyl)-5-(1-cyclopropyl-3-(trifluoromethyl)-1H-pyrazol-4-yl)-1-methyl-1H-imidazole-2-carboxamide hydrochloride], for which the IC90 was 352 nM.
Regarding `Cn1c(-c2cn(C3CC3)nc2C(F)(F)F)cnc1C(=O)Nc1ccc(C(=O)NC[C@H]2CC[C@H](N)CC2)c(Cl)c1` [Example 289, rac-N-(4-((((1r,4r)-4-aminocyclohexyl)methyl)carba-moyl)-3-chlorophenyl)-5-(1-cyclopropyl-3-(trifluoromethyl)-1H-pyrazol-4-yl)-1-methyl-1H-imidazole-2-carboxamide hydrochloride], the IC90 worked out at 354 nM.
Still for that read-out and setting: with `Cn1c(-c2cn(CC(F)F)nc2C(F)(F)F)cnc1C(=O)Nc1ccc(C(=O)N2CCN(CCN)CC2)c(Cl)c1` [Example 290, N-(4-(4-(2-aminoethyl)piperazine-1-carbonyl)-3-chlorophenyl)-5-(1-(2,2-difluoroethyl)-3-(trifluoromethyl)-1H-pyrazol-4-yl)-1-methyl-1H-imidazole-2-carboxamide formate] the figure was 358 nM; with `Cc1cc(NC(=O)c2ncc(-c3cn(CC#N)nc3C(F)(F)F)n2C)ccc1S(C)(=O)=NCCCN` (stereo not drawn) [Example 291, N-[4-[N-(3-aminopropyl)-S-methyl-sulfonimidoyl]-3-methyl-phenyl]-5-[1-(cyanomethyl)-3-(trifluoromethyl)pyrazol-4-yl]-1-methyl-imidazole-2-carboxamide; formic acid], 359 nM; with `Cn1c(-c2cn(CC3CCC3)nc2C(F)(F)F)cnc1C(=O)Nc1ccc(C(=O)N2CCN(C(=O)[C@H]3C[C@@H](N)C3)CC2)c(Cl)c1` [Example 295, rac-N-(4-(4-((1s,3s)-3-aminocyclobutane-1-carbonyl)piperazine-1-carbonyl)-3-chlorophenyl)-5-(1-(cyclobutylmethyl)-3-(trifluoromethyl)-1H-pyrazol-4-yl)-1-methyl-1H-imidazole-2-carboxamide hydrochloride], 364 nM.
`CCn1cc(-c2cnc(C(=O)Nc3ccc(C(=O)N4CCN(C(=O)N[C@H]5C[C@@H](N)C5)CC4)c(Cl)c3)n2C)c(C(F)(F)F)n1` [Example 296, N-(3-aminocyclobutyl)-4-[2-chloro-4-[[5-[1-ethyl-3-(trifluoromethyl)pyrazol-4-yl]-1-methylimidazole-2-carbonyl]amino]benzoyl]pipera-zine-1-carboxamide;formic acid]: the IC90 worked out at 364 nM.
`CN1CCN(C(=O)N2CCN(C(=O)c3ccc(NC(=O)c4ncc(-c5cn(C6CC6)nc5C(F)(F)F)n4C)cc3Cl)CC2)CC1` [Example 297, N-(3-chloro-4-(4-(4-methylpiperazine-1-carbonyl)piperazine-1-carbonyl)phenyl)-5-(1-cyclopropyl-3-(trifluoromethyl)-1H-pyrazol-4-yl)-1-methyl-1H-imidazole-2-carboxamide]: the IC90 turned out to be 365 nM.

Still in this experiment, the particulars now being: Acinetobacter baumannii, ATCC17961, read-out: ATCC 17961 IC90, Acinetobacter baumannii ATCC 17961, Iso-Sensitest broth.
For `CC(C)Cn1cc(-c2cnc(C(=O)Nc3ccc(C(=O)N4CCN(C(=O)N[C@H]5C[C@@H](N)C5)CC4)c(Cl)c3)n2C)c(C(F)(F)F)n1` [Example 292, rac-N-((1s,3s)-3-aminocyclobutyl)-4-(2-chloro-4-(5-(1-isobutyl-3-(trifluoromethyl)-1H-pyrazol-4-yl)-1-methyl-1H-imidazole-2-carboxamido)benzoyl)piperazine-1-carboxamide hydrochloride], the IC90 amounted to 361 nM.
As to `Cn1c(-c2cn(CC3CC(F)(F)C3)nc2C(F)(F)F)cnc1C(=O)Nc1ccc(C(=O)N2CCN(C(=O)N[C@H]3C[C@@H](N)C3)CC2)c(Cl)c1` [Example 293, rac-N-((1s,3s)-3-aminocyclobutyl)-4-(2-chloro-4-(5-(1-((3,3-difluorocyclobutypmethyl)-3-(trifluoromethyl)-1H-pyrazol-4-yl)-1-methyl-1H-imidazole-2-carboxamido)benzoyl)piperazine-1-carboxamide hydrochloride], the IC90 worked out at 363 nM.
